Assay results reported in patent US20250082656A1, “DOSAGE REGIMENS FOR TREATMENT OF DENGUE INFECTION” (Atea Pharmaceuticals, Inc., priority 2022, published 2025).
Values after ≈ are worked out from the molar mass of the structure shown.

Key:
West Nile (WNV) [1] = experiment: Neutral red assay of virus-induced CPE, WNV; format: cell-based; details: Kern 515, WNo2, Huh-7, neutral red assay
Dengue-2 (DENV-2) = experiment: Virus yield reduction (VYR) assay, DENV-2; format: cell-based
West Nile (WNV) [2] = experiment: microbe, parasite or virus in culture; format: cell-based; details: Kern 515, WNo2, Huh-7, VYR assay
DENV-3 = experiment: Antiviral assay with FC read-out, DENV-3; format: cell-based; details: Dengue virus, DENV3; DENV-3 CH4348, Huh-7, FC read-out
DENV-4 [3] = experiment: Antiviral assay with FC read-out, DENV-4; format: cell-based; details: Dengue virus, DENV4; DENV-4 TVP-360, Huh-7, FC read-out
HCV = experiment: Antiviral specificity panel, HCV; format: cell-based, hepatitis C virus
[4] = tested on: Respiratory syncytial virus; experiment: Antiviral specificity panel, RSV; format: cell-based; details: human respiratory syncytial virus, HEp-2; RNA virus, HEp2
Herpes simplex-1 = experiment: Antiviral specificity panel, Herpes simplex-1; format: cell-based; details: DNA virus, Vero
Dengue serotype 2 = experiment: In vitro antiviral potency, summary over strains, Dengue serotype 2; format: cell-based; details: Dengue virus
Dengue serotype 3 = experiment: In vitro antiviral potency, summary over strains, Dengue serotype 3; format: cell-based; details: Dengue virus
Dengue serotype 4 = experiment: In vitro antiviral potency, summary over strains, Dengue serotype 4; format: cell-based; details: Dengue virus
in vitro = details: hamster
DENV-2 = experiment: microbe, parasite or virus in culture; details: Dengue virus, DENV2, Huh-7
DENV-4 [5] = experiment: microbe, parasite or virus in culture; details: Dengue virus, DENV4, Huh-7
[6] = Cytotoxicity in uninfected Huh-7 cells; details: human, Huh-7 cells, uninfected
Huh-7 cells = experiment: Cytotoxicity in uninfected Huh-7 cells; details: Table 1A, Huh-7 incubated without virus, parallel to the virus of the line; highest concentration tested
[7] = Cardiomyocyte cytotoxicity assay (CellTiter Glo); details: human, human iPS cardiomyocytes
[8] = Bone marrow progenitor cell assay, granulocyte macrophage (GM); details: human
DENV1 NS5 = DENV1 NS5 (Dengue virus type 1, UniProt P17763); experiment: Nucleotide analogue incorporation / discrimination assay, DENV1 NS5; format: biochemical; details: GTP for AT-9010 and AT-9002, UTP for SOF-TP
Description: (§1) The chain-terminating efficiency of Compound 5 was measured in competitive nucleotide incorporation assays using all four DENV serotypes. […] In comparison, sofosbuvir triphosphate is incorporated into the RNA less than 1 time for every 100 UTP (native uridine triphosphate) incorporations.
(§2) Measurements and quantitations were as in FIG. 19B.
(§3) DENV NS5 was pre-incubated with the annealed P10/T20 RNA in an assembly buffer containing 20 mM HEPES pH 7.5, 10% glycerol, 5 mM MgCl2, and 5 mM DTT for 10 min at 30° C. to create an active RNA elongation complex.
(§4) Reactions were started by adding AT-9010 with either all four NTPs or UTP, ATP, and CTP only.
(§5) Single nucleotide incorporation was tested as follows. Reactions were started by adding the corresponding NTP or analogue. Final concentrations were 1 μM NS5, 0.25 μM P10/T20, 100 μM NTP or analogue in a final buffer containing 20 mM HEPES pH 7.5, 15% glycerol, 5 mM MgCl2, and 5 mM DTT.
(§6) Reactions were quenched at the designated time points in 3× volume FBD stop solution (formamide, 10 mM EDTA) and analyzed on 20% acrylamide-bisacrylamide (19:1) […] sequencing gels. RNA products were visualized using a Typhoon FluorImager then analyzed and quantified using ImageQuant software.

DENV2 NS5 [9] = biological target: T1, DENV2 NS5 (Dengue virus type 2, UniProt P14340); experiment: Nucleotide analogue incorporation / discrimination assay, DENV2 NS5; format: biochemical
Description: as §1
The experimental procedure is provided in Example 10.
as §2
DENV NS5 was preincubated with the annealed P10/T20 RNA in an assembly buffer containing 20 mM HEPES pH 7.5, 10% glycerol, 5 mM MgCl2 and 5 mM DTT for 10 min at 30° C. to create an active RNA elongation complex. Reactions were started by adding AT-9010 with either all four NTPs, or UTP, ATP and CTP only. […] Reactions were quenched at indicated timepoints in 2× volume FBD stop solution (formamide, 10 mM EDTA) and analysed on 20% acrylamide:bisacrylamide (19:1), […] sequencing gels. RNA products were visualized using a Typhoon FluorImager and analyzed using ImageQuant software.
as §3, §4, §5, §6

[10] = tested on: NS5 RNA dependent RNA polymerase (RdRp); experiment: Competitive nucleotide incorporation assays, all four DENV serotypes (summary); format: biochemical, Dengue virus; details: approximately
Description: As described in Example 10 and shown in FIG. 1, the active metabolite of Compound 2 or Compound 1 (Compound 5) acts as a GTP analog and is incorporated into RNA by the NS5 RNA dependent RNA polymerase (RdRp), immediately terminating synthesis.
as §1

DENV2 NS5 [11] = biological target: T1, DENV2 NS5; experiment: Thermal shift assay, DENV2 NS5; details: read-out: ΔTM
DENV4 NS5 = DENV4 NS5 (Dengue virus type 4, UniProt P09866); experiment: Thermal shift assay, DENV4 NS5; details: read-out: ΔTM
DENV2 RdRp domain = DENV2 RdRp domain (Dengue virus type 2, UniProt P14340); experiment: Thermal shift assay, DENV2 RdRp domain; details: read-out: ΔTM
DENV3 MTase domain = DENV3 MTase domain (Dengue virus type 3, UniProt Q6YMS4); experiment: Thermal shift assay, DENV3 MTase domain; details: read-out: ΔTM
DENV3 MTase domain, sequence (Q6YMS4 2492-2753): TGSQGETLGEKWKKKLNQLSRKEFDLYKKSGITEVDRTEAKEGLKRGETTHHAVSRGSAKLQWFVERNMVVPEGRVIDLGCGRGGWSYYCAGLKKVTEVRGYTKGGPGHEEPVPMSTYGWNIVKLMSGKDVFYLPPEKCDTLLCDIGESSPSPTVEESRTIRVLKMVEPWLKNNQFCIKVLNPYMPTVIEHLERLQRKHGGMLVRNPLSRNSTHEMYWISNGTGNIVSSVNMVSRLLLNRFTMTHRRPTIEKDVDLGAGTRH

DENV1 NS5, sequence (P17763 2494-3392): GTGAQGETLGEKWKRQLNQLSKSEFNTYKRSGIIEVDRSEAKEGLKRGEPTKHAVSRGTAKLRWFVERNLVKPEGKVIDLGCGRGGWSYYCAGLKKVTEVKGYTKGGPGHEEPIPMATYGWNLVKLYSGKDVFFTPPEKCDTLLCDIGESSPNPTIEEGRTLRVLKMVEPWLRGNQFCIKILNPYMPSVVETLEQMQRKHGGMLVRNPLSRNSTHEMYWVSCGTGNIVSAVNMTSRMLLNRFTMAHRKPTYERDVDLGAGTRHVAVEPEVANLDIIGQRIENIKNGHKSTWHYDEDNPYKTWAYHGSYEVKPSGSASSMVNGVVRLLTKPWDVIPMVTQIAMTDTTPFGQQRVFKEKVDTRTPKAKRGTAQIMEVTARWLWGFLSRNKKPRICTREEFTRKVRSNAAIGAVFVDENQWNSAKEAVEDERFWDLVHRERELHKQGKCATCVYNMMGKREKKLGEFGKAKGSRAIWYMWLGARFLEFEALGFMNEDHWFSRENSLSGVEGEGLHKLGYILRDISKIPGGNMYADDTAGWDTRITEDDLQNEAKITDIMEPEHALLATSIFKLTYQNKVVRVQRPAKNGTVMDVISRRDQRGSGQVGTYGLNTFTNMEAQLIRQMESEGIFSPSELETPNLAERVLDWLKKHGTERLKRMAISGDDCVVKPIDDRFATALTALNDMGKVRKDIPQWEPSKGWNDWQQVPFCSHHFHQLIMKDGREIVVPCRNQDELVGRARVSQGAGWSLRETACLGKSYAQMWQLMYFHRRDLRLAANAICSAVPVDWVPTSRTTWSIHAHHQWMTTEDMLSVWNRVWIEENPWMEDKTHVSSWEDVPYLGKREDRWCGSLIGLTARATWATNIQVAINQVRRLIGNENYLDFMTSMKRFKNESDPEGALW
DENV4 NS5, sequence (P09866 2488-3387): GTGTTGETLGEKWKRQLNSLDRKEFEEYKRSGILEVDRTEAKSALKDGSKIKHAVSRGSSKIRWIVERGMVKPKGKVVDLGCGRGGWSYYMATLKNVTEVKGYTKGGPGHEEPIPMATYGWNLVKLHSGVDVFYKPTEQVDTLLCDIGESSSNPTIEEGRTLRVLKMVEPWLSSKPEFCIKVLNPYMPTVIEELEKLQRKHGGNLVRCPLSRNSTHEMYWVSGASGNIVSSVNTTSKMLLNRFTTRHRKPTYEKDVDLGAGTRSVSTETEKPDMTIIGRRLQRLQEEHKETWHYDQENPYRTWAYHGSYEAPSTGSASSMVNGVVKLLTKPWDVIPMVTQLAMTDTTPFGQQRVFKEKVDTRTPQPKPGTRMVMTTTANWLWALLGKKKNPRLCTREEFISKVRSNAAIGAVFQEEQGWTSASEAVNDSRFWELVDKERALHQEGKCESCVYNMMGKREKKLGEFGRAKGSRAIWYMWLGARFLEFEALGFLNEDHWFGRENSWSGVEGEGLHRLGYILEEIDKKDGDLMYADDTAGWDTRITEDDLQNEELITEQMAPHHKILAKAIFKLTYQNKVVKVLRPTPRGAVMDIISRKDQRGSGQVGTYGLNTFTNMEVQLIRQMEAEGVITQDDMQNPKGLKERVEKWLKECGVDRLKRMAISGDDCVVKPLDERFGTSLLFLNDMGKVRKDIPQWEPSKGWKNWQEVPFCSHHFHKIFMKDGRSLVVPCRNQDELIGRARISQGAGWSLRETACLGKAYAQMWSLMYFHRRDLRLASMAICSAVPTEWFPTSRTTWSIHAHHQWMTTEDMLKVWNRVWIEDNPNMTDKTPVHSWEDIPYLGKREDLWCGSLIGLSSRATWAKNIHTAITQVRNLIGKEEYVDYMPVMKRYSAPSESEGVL

SMILES: CNc1nc(N)nc2c1ncn2[C@@H]1O[C@H](CO[P@](=O)(N[C@@H](C)C(=O)OC(C)C)Oc2ccccc2)[C@@H](O)[C@@]1(C)F [Compound 1, isopropyl ((R)-(((2R,3R,4R,5R)-5-(2-amino-6-(methylamino)-9H-purin-9-yl)-4-fluoro-3-hydroxy-4-methyltetrahydrofuran-2-yl)methoxy)(phenoxy)phosphoryl)-L-alaninate]
- EC50 (West Nile (WNV) [1]): 1410 nM
- EC50 (Dengue-2 (DENV-2); DENV2, BHK-21): 6500 nM
- EC50 (Dengue-2 (DENV-2); DENV2, Huh-7): 640 nM
- EC90 (Dengue-2 (DENV-2); DENV2, read-out: EC90 against Dengue serotype 2): ~0.2 µg/mL (≈ 0.344 µM)
- EC90 (West Nile (WNV) [2]): 430 nM
- EC50 (DENV-3): 1330 nM
- EC50 (DENV-4 [3]): 1190 nM
- selectivity towards HCV (HCV; CC50/EC50): > 2,000
- EC50 (HCV; Hepatitis C virus, RNA virus, Huh-7): 50 nM
- EC50 [4]: > 100000 nM
- EC50 (Herpes simplex-1): > 100000 nM
- EC50 (Dengue serotype 2): < 7000 nM
- EC50 (Dengue serotype 3): < 1500 nM
- EC50 (Dengue serotype 4): < 1200 nM
- CC50 (in vitro): > 170000 nM
- EC50 (DENV-2): 300 nM
- EC50 (DENV-4 [5]): 570 nM
- CC50 [6]: > 100000 nM
- CC50 (Huh-7 cells): > 170000 nM
- CC50 at 3 days [7]: > 100000 nM
- CC50 at 14 days [8]: > 100000 nM

SMILES: C[C@@]1(F)[C@H](O)[C@@H](COP(=O)(O)OP(=O)(O)OP(=O)(O)O)O[C@H]1n1cnc2c(=O)[nH]c(N)nc21 [Compound 5]
- Preference (discrimination) native nucleotide > analogue (DENV1 NS5): 7.7 ± 0.5
- Preference (discrimination) native nucleotide > analogue (DENV2 NS5 [9]; DENV2, GTP for AT-9010 and AT-9002, UTP for SOF-TP): 9.3 ± 0.1
- discrimination factor (preference for GTP>Compound 5) (DENV2 NS5 [9]; DENV-2 NS5, all four NTPs, band product intensities): 12.6±4.3
- effect on RNA synthesis after incorporation (DENV2 NS5 [9]; absence of GTP, next correct nucleotide (UTP) present): immediate chain-termination of RNA synthesis
- GTPs incorporated for one AT-9010 incorporated [10]: 7-8
- ΔTm at 100 µM (DENV2 NS5 [11]): 6 ± 0.1 °C
- ΔTm at 100 µM (DENV4 NS5): 4.8 ± 0.1 °C
- ΔTm at 100 µM (DENV2 RdRp domain): 3.8 ± 0.1 °C
- ΔTm at 100 µM (DENV3 MTase domain): 3.5 ± 0.1 °C
